# Measurements reported in US20030153536A1, “Compounds and methods of treating transplant rejection” (priority 2001, published 2003).
# What was measured:
# [1] = Tolerability in rat aortic allograft study; type: in vivo
# Experimental: (§1) Compound A was administered subcutaneously to recipient animals three days prior to the surgery and once daily for 90 days thereafter. […] Thereafter, the dose was reduced to 30 mg/kg/d for 6 days and then further reduced to 5 mg/kg/d for the remainder of the study.
# The group receiving the 40/30/5 mg/kg/d dose of Compound A evidenced the highest degree of inhibition despite the fact that it received only a 40 mg/kg/d dose for 13 days prior to dosing down. […] After 90 days of dosing, the trough plasma levels were 10, 18 and 28 uM for the 10,20 and 40/30/5 mg/kg/d doses, respectively.
# [2] = system: ACI-to-Lewis rat aortic allograft; experiment: Rat aortic allograft model (graft arteriosclerosis); type: in vivo; details: for percent inhibition of IM ratio / percent inhibition of the % LN (luminal narrowing): day 90, vs vehicle control
# Experimental: Compound A was evaluated for graft arteriosclerosis resulting from aortic heterotropic transplantation. This is a model of graft arteriopathy which is the major obstacle to long term success of solid organ transplantation.
# Donor descending aortas from ACI rats were heterotypically transplanted into Lewis rat abdomens in end-to-end fashion with minimal ischemic time. 55 rats were assigned to five groups as follows:
# as §1
# On day 90, the allograft segment was removed, fixed in 10% buffered formal in and paraffin embedded. Sections were stained with von Geisson's elastic stain, and intima-to-media area (IM) ratio and percent luminal narrowing (% LN) were assessed by digital morphometry (See FIGS. 1 and 2). Blood was collected at regular intervals throughout the study and plasma evaluated for compound levels (See FIG. 3).
# [3] = system: human aortic smooth muscle cells (AoSMC); experiment: Smooth muscle cell proliferation inhibition (3H-thymidine incorporation); type: cell-based; details: 5% serum-stimulated AoSMC, 20 hr incubation, read-out: SMC Proliferation Inhibition (IC50)
# Experimental: Cultured human aortic smooth muscle cells (AoSMC) were obtained from Clonetics, Inc. and were used below passage 10. Cells were seeded in 24-well plates. When cells were 80% confluent, they were made quiescent by adding media containing 0.2% serum (as compared to 5% serum in normal culture media) for 48 hours. The cells were then stimulated by 5% serum in the presence or absence of compounds dissolved in DMSO. To establish a dose curve and IC50 for each compound, multiple concentrations (20,15,10,5 μM) were used. Rapamycin (at 1 and 0.1 μM) was used as a positive control for the assay. After a 20 hr incubation with or without test compounds, ^3H-thymidine (0.5 μCi/per well) was added to the cells for 4 hours of labeling. Washed cells were then lysed in NaOH and the amount of^3H-thymidine incorporation was determined by a scintillation counter.
# [4] = background statement; cited from earlier work
# [5] = 20 mg and 40/30/5 mg/kg/d doses
smiles,measurement,setting,value
"CC(C)(Sc1cc(C(C)(C)C)c(O)c(C(C)(C)C)c1)Sc1cc(C(C)(C)C)c(OCCCC(=O)O)c(C(C)(C)C)c1 [Compound A, 4-[4-[[1-[[3,5-bis(1,1-dimethylethyl)-4-hydroxyphenyl]thio]-1-methylethyl]thio]-2,6-bis(1,1-dimethylethyl)phenoxy]butyric acid]",toxic side effects,[1]; 20 mg/kg/d,without grossly discemable toxic side effects
same,body weight change,"[1]; 40 mg/kg/d group, until dose dropped to 5 mg/kg/d",initially lost weight
same,adverse findings leading to dose reduction,"[1]; 40 mg/kg/d subcutaneous, 13 days",failure to gain weight and skin irritation
same,tolerability of treatment,[1]; 10 and 20 mg/kg/d subcutaneous,well tolerated
same,percent inhibition of IM ratio,[2]; 10 mg/kg/d subcutaneous,11%
same,percent inhibition of the % LN (luminal narrowing),[2]; 10 mg/kg/d subcutaneous,22%
same,% LN compared to the vehicle group,[2]; [5],significantly lower
same,IM ratio compared to the vehicle group,[2]; [5],significantly lower
same,percent inhibition of IM ratio,[2]; 20 mg/kg/d subcutaneous,28%
same,percent inhibition of the % LN (luminal narrowing),[2]; 20 mg/kg/d subcutaneous,33%
same,inhibition of aortic neointimal growth,"[2]; 10, 20, 40/30/5 mg/kg/d",dose-dependent inhibition
same,percent inhibition of IM ratio,[2]; 40/30/5 mg/kg/d subcutaneous,49%
same,percent inhibition of the % LN (luminal narrowing),[2]; 40/30/5 mg/kg/d subcutaneous,52%
same,IC50,[3],5.5 µM
CC(C)(Sc1cc(C(C)(C)C)c(O)c(C(C)(C)C)c1)Sc1cc(C(C)(C)C)c(OC(=O)CN)c(C(C)(C)C)c1 [Compound I],IC50,[3],8 µM
CCOC(=O)CC[C@H](NCC(O)COc1c(C(C)(C)C)cc(SC(C)(C)Sc2cc(C(C)(C)C)c(O)c(C(C)(C)C)c2)cc1C(C)(C)C)C(=O)OCC (some centres unmarked) [E],IC50,[3],3.7 µM
"C=CC[C@@H]1/C=C(\C)C[C@H](C)C[C@H](OC)[C@H]2O[C@@](O)(C(=O)C(=O)N3CCCC[C@H]3C(=O)O[C@H](/C(C)=C/[C@@H]3CC[C@@H](O)[C@H](OC)C3)[C@H](C)[C@@H](O)CC1=O)[C@H](C)C[C@@H]2OC [FK506, tacrolimus]",immunosuppressive activity relative to cyclosporin,[4],10-100 times
